The source made the active and inactive calls.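 Rule for the calls: active = at least 15% GFP+ cells at the top dose together with an EC50 below 10 µM; inactive = the rest.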
system: not listed separately; assay: lysozyme-GFP induction in HOXA9-ER cells – HOXA9-ER marrow cells, GFP flow, set 1, SAR follow-up (AID 743181); settings: HOXA9-ER marrow cells, lysozyme-GFP differentiation, flow; at 10 µM (top of the series)

SMILES | GFP+ cells, differentiation
Cc1ccc(C)c(OCCn2cc(C(=O)O)c3ccccc32)c1 | 0% (inactive)
NCCC(=O)N[C@@H]1CCCc2ccccc21 | 1% (inactive)
CC(c1ccccc1)N(C)C(=O)CCNC(=O)c1ccc(Cl)cc1 (stereo not given) | 0% (inactive)
O=C(O)c1ccccc1OCc1ccccc1Br | 1% (inactive)
O=C(CCCNC(=O)c1ccc(C(F)(F)F)cc1)N[C@@H]1CCCc2ccccc21 | 1% (inactive)
O=C(NC1CCc2ccccc21)C1CCCN(C(=O)c2ccc(Cl)cc2)C1 (stereo not given) | 1% (inactive)
CC(C)(C)OC(=O)NCCC(=O)N[C@H]1CCCc2ccccc21 | 1% (inactive)
O=C(CNC(=O)c1ccc(OC(F)(F)F)cc1)N[C@@H]1CCCc2ccccc21 | 1% (inactive)
O=C(Cc1ccc(Cl)cc1)NCCC(=O)N[C@@H]1CCCc2ccccc21 | 16% (inactive)
CC(NC(=O)C1CCCN(C(=O)c2ccc(Cl)cc2)C1)c1ccccc1 (stereo not given) | 0% (inactive)
CC(C)(C)OC(=O)NCCC(=O)N[C@@H]1CCCc2ccccc21 | 1% (inactive)
O=C(CCCNC(=O)c1ccc(OC(F)(F)F)cc1)N[C@@H]1CCCc2ccccc21 | 1% (inactive)
O=C(CNC(=O)c1ccc(C(F)(F)F)cc1)N[C@@H]1CCCc2ccccc21 | 1% (inactive)
C[C@@H](NC(=O)CCNC(=O)c1ccc(Cl)cc1)c1ccccc1 | 1% (inactive)
CC(NC(=O)CCNC(=O)c1ccc(Cl)cc1)c1ccc2c(c1)OCO2 (stereo not given) | 0% (inactive)
O=C(CCCNC(=O)c1ccc(Cl)c(Cl)c1)N[C@@H]1CCCc2ccccc21 | 1% (inactive)
O=C(CCNC(=O)c1ccc(Cl)cc1)N[C@H]1CCCc2ccccc21 | 1% (inactive)
Cc1cccc(C(=O)NCCC(=O)NC2CCCc3ccccc32)c1 (stereo not given) | 1% (inactive)
O=C(CCCNC(=O)c1ccc(Cl)cc1)N[C@@H]1CCCc2ccccc21 | 2% (inactive)
O=C(CNC(=O)c1ccc(Cl)c(Cl)c1)N[C@@H]1CCCc2ccccc21 | 2% (inactive)
O=C(CCNC(=O)c1ccc(F)cc1)N[C@@H]1CCCc2ccccc21 | 12% (inactive)
O=C(CCNC(=O)c1ccccc1)N[C@@H]1CCCc2ccccc21 | 3% (inactive)
N#Cc1ccc(C(=O)NCCC(=O)N[C@@H]2CCCc3ccccc32)cc1 | 16% (inactive)
O=C(CCNC(=O)c1ccc(Cl)cc1)NC1CCCCC1 | 1% (inactive)
CC(NC(=O)CCNC(=O)c1ccc(Cl)cc1)c1ccc(F)cc1 (stereo not given) | 1% (inactive)
O=C(NC1CCOc2ccccc21)C1CCCN(C(=O)c2ccc(Cl)cc2)C1 (stereo not given) | 1% (inactive)
O=C(CNC(=O)c1ccc(Cl)cc1)N[C@@H]1CCCc2ccccc21 | 4% (inactive)
COc1ccccc1C(C)NC(=O)CCNC(=O)c1ccc(Cl)cc1 (stereo not given) | 0% (inactive)
CC(=O)NCCC(=O)N[C@@H]1CCCc2ccccc21 | 0% (inactive)

system: HOXA9-ER marrow cells, lysozyme-GFP differentiation, flow; assay: as above; settings: not given

SMILES | EC50 [µM]
O=C(CCNC(=O)c1ccc(Cl)cc1)N[C@@H]1CCCc2ccccc21 | 3.47
O=C(CCNC(=O)c1ccc(Cl)cc1)N[C@@H]1CCc2ccccc21 | 9.97
O=C(CCNC(=O)c1ccc(C(F)(F)F)cc1)N[C@@H]1CCCc2ccccc21 | 2.63
O=C(CCNC(=O)c1ccc(Cl)c(Cl)c1)N[C@@H]1CCCc2ccccc21 | 3.24
O=C(O)c1cccnc1Nc1ccc(Cl)cc1 | 5.4
O=C(CCNC(=O)c1ccc2c(c1)OC(F)(F)O2)N[C@@H]1CCCc2ccccc21 | 4.69
O=C(CCNC(=O)c1ccc(Cl)cc1)NC1CCCc2ccccc21 (stereo not given) | 5.06
Cc1ccc(C(=O)NCCC(=O)N[C@@H]2CCCc3ccccc32)cc1 | 8.68
O=C(CCNC(=O)c1ccc(OC(F)(F)F)cc1)N[C@@H]1CCCc2ccccc21 | 1.61
COc1ccc(C(=O)NCCC(=O)N[C@@H]2CCCc3ccccc32)cc1 | 4.95
O=C(CCNC(=O)c1cccc(Cl)c1)N[C@@H]1CCCc2ccccc21 | 5.42
